Converted amounts (≈) assume the structure as drawn. Like-named read-outs stand apart in the source and are kept apart here.
Tests used:
acute toxicity in mice = settings: mouse, in vivo
Protocol: In the course of this pharmacological research a toxicological study of the most preferred compound was carried out.

D1 receptors = assay: displacement of 3H-piflutixol, ligand of D1 receptors, in vitro on rat striatum preparations; format: binding
Text: (§1) These tests which consisted of studying the displacement of specific ligands of dopamine receptors by compounds of the invention. The compound in Example I was found, for instance, to have an inhibiting concentration (50), I.C.

[1] = tested on: reserpine-induced motor depression and ptosis; assay: reserpine model of behavioural depression; format: in vivo, mice or rats
Protocol: In view of this activating property of the compounds of the invention, animal models of behavioural depression were used to investigate a possible antidepressive effect. For example, mice pre-treated with reserpine (5 mg/kg) intraperitoneally 18 hours before the test, or rats receiving reserpine in the nucleus accumbens 1 μg/24 h) were tested.

prolactin = prolactin content in serum after subcutaneous administration in the male rat; format: in vivo
Protocol: The blood samples had been taken 10 and 30 minutes after administration of the compound, whereas the same dose of a reference antidopaminergic (Sulpiride) studied under the same conditions, multiplies the amount of basic prolactinaemia by a factor of about 10.

D2 receptors = biological target: T1, D2 receptors (Rattus norvegicus, UniProt P61169); assay: displacement of 3H-spiperone, ligand of D2 receptors, in vitro on rat striatum preparations; format: binding; settings: read-out: inhibiting concentration (50), I.C. 50, relative to 3H-spiperone
T1 construct: in vitro tests on rat striatum preparations; from tissue; host or cells: rat striatum preparations
T1 sequence (P61169 whole entry): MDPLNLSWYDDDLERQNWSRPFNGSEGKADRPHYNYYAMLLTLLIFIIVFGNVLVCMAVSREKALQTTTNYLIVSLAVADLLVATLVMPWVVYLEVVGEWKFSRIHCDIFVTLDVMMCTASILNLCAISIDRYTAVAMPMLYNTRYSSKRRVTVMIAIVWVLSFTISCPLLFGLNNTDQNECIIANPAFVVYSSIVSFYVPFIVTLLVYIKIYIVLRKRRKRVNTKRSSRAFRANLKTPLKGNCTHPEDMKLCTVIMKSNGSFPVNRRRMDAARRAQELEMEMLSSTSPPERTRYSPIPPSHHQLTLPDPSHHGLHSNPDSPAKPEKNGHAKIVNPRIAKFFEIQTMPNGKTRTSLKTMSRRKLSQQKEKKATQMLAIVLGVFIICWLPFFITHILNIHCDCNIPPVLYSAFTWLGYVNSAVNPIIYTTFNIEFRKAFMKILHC
Text: as §1

solubility in water = format: physicochemical

## CCN(CC)CCNC(=O)c1cc(Cl)c(NC2=NCCN2)cc1OC [Example I, N-[(DIETHYL AMINO) ETHYL] 2-METHOXY 4-[(1-H 4,5-DIHYDRO 2-IMIDAZOLYL) AMINO] 5-CHLORO BENZAMIDE]
Acute toxicity in mice; ip, read-out: LD 50 i.p.
  LD50: 37.7 to 40.8 mg/kg
Acute toxicity in mice; iv, read-out: LD 50 i.v.
  LD50: 12.8 to 14.4 mg/kg
Acute toxicity in mice; po, per os, read-out: LD 50 per os
  LD50: 165 to 180 mg/kg
Acute toxicity in mice; sc, read-out: LD 50 s.c.
  LD50: 52 to 54 mg/kg
D1 receptors
  displacement of 3H-piflutixol: no displacement
[1]; 0.1 mg/kg s.c. versus imipramine 30 mg/kg i.p.
  activity compared with imipramine against reserpine: as active at that dose as 30 mg/kg of imipramine
[1]; 0.1 mg/kg s.c., reserpine 5 mg/kg i.p. (mice) or in nucleus accumbens 1 μg/24 h (rats)
  effect on reserpine-induced motor depression and ptosis: counteracts motor depression and ptosis
prolactin; 1 mg/kg s.c., eight rats, 10 and 30 minutes after administration
  increase in prolactin content in serum: no increase in prolactin content
D2 receptors
  IC50: > 100 µM

## CCN1CCCC1CNC(=O)c1cc(S(N)(=O)=O)ccc1OC (stereo not shown) [Sulpiride, reference compound]
prolactin; same dose (1 mg/kg) and same conditions
  factor by which the amount of basic prolactinaemia is multiplied: about 10

## COc1cc(NC2=NCCO2)c(Cl)cc1C(=O)NCC1CCCN1CC1CC1 (stereo not shown) [XL, N-(1-CYCLOPROPYLMETHYL 2-PYRROLIDINYLMETHYL) 2-METHOXY 4-[(4,5-DIHYDRO 2-OXAZOLYL) AMINO] 5-CHLORO BENZAMIDE]
Solubility in water; monohydrochloride prepared for immediate use, read-out: soluble in water, monohydrochloride
  solubility: ~320 mg/mL (≈ 786 mM)

## C=CCOc1cc(NC2=NCCN2)c(Cl)cc1C(=O)NCCN(CC)CC [XXXIII, N-(DIETHYLAMINO ETHYL) 2-ALLYLOXY 4-[(1-H 4,5 DIHYDRO 2-IMIDAZOLYL) AMINO] 5-CHLORO BENZAMIDE]
Solubility in water; hydrochloride prepared for immediate use, read-out: soluble in water, hydrochloride
  solubility: 200 mg/mL (≈ 508 mM)
Solubility in water; the product (base), read-out: insoluble in water
  solubility: 10 mg/mL (≈ 25.4 mM)
